Measured values from patent publication US9676758B2, “1-heteroaryl-indoline-4-carboxamides as modulators of GPR52 useful for the treatment or prevention of disorders related thereto” (Arena Pharmaceuticals, Inc., priority 2015, dated 2017).

Experiments:
[1] = Brain penetration (plasma and brain exposure); format: in vivo, mouse; details: male C57BL6 mice, 60 minute time point
Procedure: Plasma and brain exposure were evaluated to determine the brain penetration of compounds described herein. Male C57BL6 mice were administered a single per oral (PO) dose of compound at 3 or 10 mg/kg (as a free base) formulated in 20% HPCD in 0.9% NaCl. Blood and brain samples were collected 60 minutes post-dose (n=3-6 animals). Blood was collected via cardiac puncture and stored on ice prior to the separation of plasma by centrifugation. Brains were extracted from the cranium and frozen on dry ice. Tissue samples were stored at approximately −80° C. prior to bioanalytical analysis.
Analyte plasma and brain concentrations were determined by LC/MS/MS.

recombinant GPR52 = target: T1, recombinant GPR52 (Homo sapiens, UniProt Q9Y2T5); assay: HTRF cAMP assay for direct cAMP measurement; format: cell-based; details: mean EC50; CHO-K1 or HEK293 cells stably expressing recombinant GPR52
T1 construct: expressed in transfected cells
T1 sequence (Q9Y2T5 whole entry): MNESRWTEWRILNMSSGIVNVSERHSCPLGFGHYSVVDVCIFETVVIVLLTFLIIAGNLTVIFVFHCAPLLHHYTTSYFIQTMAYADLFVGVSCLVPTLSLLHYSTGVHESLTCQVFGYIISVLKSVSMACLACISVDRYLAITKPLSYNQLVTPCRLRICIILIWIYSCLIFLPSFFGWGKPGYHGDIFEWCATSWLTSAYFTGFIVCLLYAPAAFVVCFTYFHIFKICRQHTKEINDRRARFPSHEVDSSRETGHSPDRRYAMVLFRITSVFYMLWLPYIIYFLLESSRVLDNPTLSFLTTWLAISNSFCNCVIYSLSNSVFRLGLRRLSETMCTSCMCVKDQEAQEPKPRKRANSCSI
Procedure: HTRF cAMP assays were performed using commercially available assay kits according to the manufacturer's instructions (cAMP Dynamic 2 Assay Kit; #62AM4PEJ, Cisbio Bioassays, Bedford, Mass.). CHO-K1 or HEK293 cells stably expressing recombinant GPR52 were harvested and resuspended in assay buffer (PBS containing 0.5 mM IBMX and 0.1% BSA) at a density of 1.2×10^6 cells per mL. […] Test compounds were solubilized and serially diluted in DMSO using 5-fold dilutions to generate 10-point dose response curves. These serially diluted samples were then further diluted in PBS to achieve a 2× stock. The diluted compounds were transferred to triplicate assay plates (5 μL per well to achieve the 1× final assay concentration). A positive control was included in each assay run. After one-hour incubation at room temperature, 5 μL of cAMP D2 reagent diluted in lysis buffer was added to each well, followed by 5 μL of cryptate reagent. Plates were then incubated at room temperature for one hour prior to reading. Time-resolved fluorescence measurements were collected on an HTRF-capable plate reader (e.g., EnVision® (PerkinElmer, Waltham, Mass.) or PHERAstar (BMG LABTECH, Cary, N.C.)). Counts from the plate reader were fit to the cAMP standard curve included on each plate to determine the amount of cAMP in each test well. Dose-response curves were generated from the cAMP data and analyzed using a nonlinear least squares curve-fitting program to obtain EC50 values.

male C57/BL6 mice = assay: Mouse basal locomotor activity; format: in vivo; details: po, 10 mg/kg P.O.
Procedure: To measure basal locomotor activity, male C57/BL6 mice (8-16 weeks) (Jackson Laboratories, Sacramento, Calif.) were transferred in home cages to the testing room approximately 60 minutes prior to testing. Approximately 15 minutes after arrival in the testing room, a dark cycle commenced, with lights turning off and infrared lights turning on for experimenter visibility. Thirty minutes after the lights were turned off, animals were individually weighed and administered either vehicle (20% hydroxypropyl-β-cyclodextrin) Compound 13 (1, 2, 5, 10, or 20 mg/kg P.O.), or another GPR52 agonist (10 mg/kg P.O.) and returned to home cages. Fifteen minutes later, mice were placed into locomotor cages and activity was recorded for 60 minutes.

| SMILES | Brain/Plasma Ratio ([1]; PO dose 3 mg/kg) | EC50 (recombinant GPR52) [nM] | inhibition at 10 mg/kg (male C57/BL6 mice) [%] | Brain/Plasma Ratio ([1]; PO dose 10 mg/kg) |
| --- | --- | --- | --- | --- |
| NC(=O)c1cccc2c1CCN2c1cc(Cc2cccc(C(F)(F)F)c2)ccn1 [Compound 5, 1-(4-(3-(Trifluoromethyl)benzyl)pyridin-2-yl)indoline-4-carboxamide] | 4.49 |  |  |  |
| O=C(NC[C@@H](F)CO)c1cccc2c1CCN2c1cc(Cc2cc(F)c(F)c(F)c2)ccn1 [Compound 166, (R)—N-(2-Fluoro-3-hydroxypropyl)-1-(4-(3,4,5-trifluorobenzyl)pyridin-2-yl)indoline-4-carboxamide] |  | 12.2 | 70 | 2.85 |
| O=C(NCCO)c1cccc2c1CCN2c1cc(Cc2cc(F)c(F)c(F)c2)ccn1 [Compound 92, N-(2-Hydroxyethyl)-1-(4-(3,4,5-trifluorobenzyl)pyridin-2-yl)indoline-4-carboxamide] |  | 8.87 | 65 | 3.00 |
| O=C(NCCO)c1c(F)ccc2c1CCN2c1cc(Cc2cccc(C(F)(F)F)c2)ccn1 [Compound 108, 5-Fluoro-N-(2-hydroxyethyl)-1-(4-(3-(trifluoromethyl)benzyl)pyridin-2-yl)indoline-4-carboxamide] |  |  |  | 1.67 |
| O=C(NC1CCN(CCO)CC1)c1cccc2c1CCN2c1cc(Cc2ccc3c(c2)CCO3)ccn1 [Compound 79, 1-(4-((2,3-Dihydrobenzofuran-5-yl)methyl)pyridin-2-yl)-N-(1-(2-hydroxyethyl)piperidin-4-yl)indoline-4-carboxamide] |  |  |  | 0.16 |
| COc1ccc(Cc2ccnc(N3CCc4c(C(=O)NC[C@@H](F)CO)cccc43)c2)cc1F [Compound 202, (R)—N-(2-Fluoro-3-hydroxypropyl)-1-(4-(3-fluoro-4-methoxybenzyl)pyridin-2-yl)indoline-4-carboxamide] |  |  | 67 |  |
| COc1ccc(Cc2ccnc(N3CCc4c(C(N)=O)cccc43)c2)cc1F [Compound 54, 1-(4-(3-Fluoro-4-methoxybenzyl)pyridin-2-yl)indoline-4-carboxamide] |  | 5.57 | 66 | 6.32 |
| C[C@@H](O)CNC(=O)c1cccc2c1CCN2c1cc(Cc2cc(F)c(F)c(F)c2)ccn1 [Compound 179, (R)—N-(2-Hydroxypropyl)-1-(4-(3,4,5-trifluorobenzyl)pyridin-2-yl)indoline-4-carboxamide] |  |  | 68 |  |
| COc1ccc(Cc2ccnc(N3CCc4c3ccc(F)c4C(=O)NC[C@@H](F)CO)c2)cc1F [Compound 167, (R)-5-Fluoro-N-(2-fluoro-3-hydroxypropyl)-1-(4-(3-fluoro-4-methoxybenzyl)pyridin-2-yl)indoline-4-carboxamide] |  | 18.2 | 62 |  |
| O=C(NCCO)c1c(F)ccc2c1CCN2c1cc(Cc2cc(F)c(F)c(F)c2)ccn1 [Compound 140, 5-Fluoro-N-(2-hydroxyethyl)-1-(4-(3,4,5-trifluorobenzyl)pyridin-2-yl)indoline-4-carboxamide] |  | 30.1 | 68 |  |
| NC(=O)c1cccc2c1CCN2c1cc(Cc2cncc(C(F)(F)F)c2)ccn1 [Compound 47, 1-(4-((5-(Trifluoromethyl)pyridin-3-yl)methyl)pyridin-2-yl)indoline-4-carboxamide] |  |  |  | 4.67 |
| NC(=O)c1cccc2c1CCN2c1cc(Cc2ccc(F)c(Cl)c2)ccn1 [Compound 58, 1-(4-(3-Chloro-4-fluorobenzyl)pyridin-2-yl)indoline-4-carboxamide] |  |  |  | 7.76 |
| NC(=O)c1cccc2c1CCN2c1cc(Cc2cc(F)cc(Cl)c2)ccn1 [Compound 42, 1-(4-(3-Chloro-5-fluorobenzyl)pyridin-2-yl)indoline-4-carboxamide] |  |  |  | 12.40 |
| COc1ccc(Cc2ccnc(N3CCc4c(C(=O)NCCO)cccc43)c2)cc1F [Compound 69, 1-(4-(3-Fluoro-4-methoxybenzyl)pyridin-2-yl)-N-(2-hydroxyethyl)indoline-4-carboxamide] |  | 3.11 |  | 0.87 |
| NC(=O)c1cccc2c1CCN2c1cc(Cc2ccc3occc3c2)ccn1 [Compound 106, 1-(4-(Benzofuran-5-ylmethyl)pyridin-2-yl)indoline-4-carboxamide] |  |  | 81 |  |
| COC[C@@H](O)CNC(=O)c1cccc2c1CCN2c1cc(Cc2cc(F)c(F)c(F)c2)ccn1 [Compound 138, (S)—N-(2-Hydroxy-3-methoxypropyl)-1-(4-(3,4,5-trifluorobenzyl)pyridin-2-yl)indoline-4-carboxamide] |  |  | 72 |  |
| O=C(NCCO)c1cccc2c1CCN2c1cc(Cc2cc(F)cc(Cl)c2)ccn1 [Compound 43, 1-(4-(3-Chloro-5-fluorobenzyl)pyridin-2-yl)-N-(2-hydroxyethyl)indoline-4-carboxamide] |  | 9.76 | 79 | 5.45 |
| CC(=O)c1cccc(Cc2ccnc(N3CCc4c(C(N)=O)cccc43)c2)c1 [Compound 78, 1-(4-(3-Acetylbenzyl)pyridin-2-yl)indoline-4-carboxamide] |  | 11.2 | 72 | 1.36 |
| NC(=O)c1cccc2c1CCN2c1cc(Cc2ccc(F)c(C(F)(F)F)c2)ccn1 [Compound 61, 1-(4-(4-Fluoro-3-(trifluoromethyl)benzyl)pyridin-2-yl)indoline-4-carboxamide] |  |  | 61 |  |
| COc1ccc(Cc2ccnc(N3CCc4c3ccc(F)c4C(=O)NCCNC(C)=O)c2)cc1F [Compound 164, N-(2-Acetamidoethyl)-5-fluoro-1-(4-(3-fluoro-4-methoxybenzyl)pyridin-2-yl)indoline-4-carboxamide] |  | 10.9 |  |  |
| NC(=O)c1cccc2c1CCN2c1cc(Cc2cnc(F)c(F)c2)ccn1 [Compound 49, 1-(4-((5,6-Difluoropyridin-3-yl)methyl)pyridin-2-yl)indoline-4-carboxamide] |  | 61.6 |  |  |
| Cn1cc(NC(=O)c2cccc3c2CCN3c2cc(Cc3cc(F)c(F)c(F)c3)ccn2)cn1 [Compound 117, N-(1-Methyl-1H-pyrazol-4-yl)-1-(4-(3,4,5-trifluorobenzyl)pyridin-2-yl)indoline-4-carboxamide] |  | 23.6 |  |  |
| N#CCCNC(=O)c1cccc2c1CCN2c1cc(Cc2cccc(C(F)(F)F)c2)ccn1 [Compound 20, N-(2-Cyanoethyl)-1-(4-(3-(trifluoromethyl)benzyl)pyridin-2-yl)indoline-4-carboxamide] |  | 36.3 |  |  |
| O=C(N[C@H]1CCOC1)c1cccc2c1CCN2c1ccnc(Cc2cccc(C(F)(F)F)c2)c1 [Compound 3, (S)-N-(Tetrahydrofuran-3-yl)-1-(2-(3-(trifluoromethyl)benzyl)pyridin-4-yl)indoline-4-carboxamide] |  | 10.3 |  |  |
| NC(=O)c1cccc2c1CCN2c1cc(Cc2ccc3c(c2)OCCCO3)ccn1 [Compound 96, 1-(4-((3,4-Dihydro-2H-benzo[b][1,4]dioxepin-7-yl)methyl)pyridin-2-yl)indoline-4-carboxamide] |  | 212 |  |  |
